In patent US20040166509A1, “Detecting hormonally active compounds” (priority 2002, published 2004):

Key:
[1] = tested on: hepatic mRNA of adult male SHMs; experiment: SHM estrogen responsive macroarray (54 cDNA clones), E2 exposure; format: in vivo, sheepshead minnow (SHM); details: adult male SHM liver; aqueous 100 ng/L E2 in TEG, 5 days; vs TEG control
Description: Total hepatic mRNA was extracted from 5 adult male SHMs treated by aqueous exposure to 100 ng/L of E2 dissolved in triethylene glycol (TEG) for 5 days. Minipreps of 54 cDNA clones derived from DD analysis were PCR amplified using primers specific to the M13 sequence of the cloning vector (pGEMT-Easy, Promega, Madison,Wis.). After the PCR reactions the products were purified in spin-columns (Qiagen, Chatsworth, Calif.) and then concentrated in a speed-vac. The cDNA samples were denatured with NaOH, heated to 65° C. for 10 min, and then immediately quenched on ice. 20×SSC (3M NaCl, 0.3M sodium citrate, pH 7.0) that contained 0.01 mM bromophenol blue was then added to the samples to yield a final concentration of 0.3M NaOH, 6×SSC, and 100 ng/μL cDNA template. The samples were then robotically spotted (Biomek 2000, Beckman Coulter, Fullerton, Calif.) in duplicate onto neutral nylon membranes (Fisher Scientific, Pittsburgh, Pa.) using 100 nL pins. The membranes were UV cross-linked and then stored under vacuum at room temperature until hybridized. Various controls, which provided information about the cDNA labeling efficiency, blocking, and non-specific binding of the arrays, were also spotted onto the membranes. These controls included: 3 Arabidopsis thaliana cDNA clones, Cot-1 repetitive sequences, poly A sequence (SpotReport 3, Stratagene, La Jolla, Calif.), and a M13 sequence (vector but no cDNA insert). Labeling of RNA probes and hybridization of blots was performed as described in Example 1.
FIGS. 4A and 4B contain blots of control (TEG-treated) and E2-treated fish, respectively. FIG. 4C is a plot of the mean intensity values. Genes on the macroarray were designated as constitutive genes if their intensity values fell within the range of the highest (1.27) and lowest (0.83) value of the 17 cDNA clones that were used to normalize the data.

[2] = tested on: hepatic RNA of LMB; experiment: LMB gene array (132 genes): hepatic gene expression after IP injection; format: in vivo, largemouth bass (LMB); details: male LMB liver, two-fold cutoff vs control
[3] = tested on: hepatic mRNA of adult male SHMs; experiment: SHM cDNA macroarray (30 genes): hepatic gene expression profiles of exposed fish; format: in vivo, sheepshead minnow (SHM)
[4] = tested on: estrogen receptors alpha, beta, and gamma, and Vtg 1 mRNA; experiment: Real-time PCR of ER and Vtg 1 mRNA in LMB liver; format: in vivo, largemouth bass (LMB); details: male LMB liver, 48 h after IP 4-NP 50 mg/kg + ICI 182,780 1.0 mg/kg
From the text: Experimental Design and Sample Collection: Adult male LMB were purchased from American Sports Fish Hatchery (Montgomery, Ala.) and maintained in fiberglass tanks as previously described (Larkin et al., Comp. Biochem. Physiol. B. Biochem. Mol. Biol. 133:543-557, 2002; Larkin et al., Marine Environ. Res. 54:395-399, 2002; and Larkin et al., Comparative Biochemistry and Physiology 133:543-557, 2002). Array technology as a tool to monitor exposure of fish to xenoestrogens. Marine Environ. Res., 2002; Bowman et al., Mol. Cell. Endocrinol. 196:67-77, 2002). Each fish was injected IP with either 50 mg/kg 4-NP (Fluka, St. Louis, Mo. # 74430), the combination of 50 mg/kg 4-NP and 1.0 mg/kg ICI 182,780 (Tocris Cookson), or vehicle, which consisted of ethanol and DMSO (Sigma, St. Louis, Mo. #5879). Each dose was dissolved in 1 ml of ethanol and then diluted to the appropriate concentration with DMSO. The fish were euthanized by submersion in a water bath containing 50-100 ppm […] 48 hours post injection and sacrificed by a sharp blow to the head followed by cervical transaction. The livers were excised and immediately flash frozen in liquid nitrogen. The frozen tissues were stored at −80° C. until RNA was isolated.
RNA Isolation: Isolation of total RNA from liver tissue was performed with the RNA Stat-60 reagent (Tel-test). Briefly, 30 mg-50 mg of tissue stored in RNA later was homogenized in 0.9 mls STAT 60, choloroform was added, and the mixture was centrifuged at 12,000 g for 15 minutes at 4° C. The extraction process was repeated and the pooled RNA was added to 500 μl isopropanol and allowed to precipitate at −20° C. for at least one hour. Following centrifugation at 12,000 g for 50 minutes, the pellet was washed with 70% ethanol, air dried and resuspended in an appropriate volume (50 μl-120 μl of RNA secure. The samples were treated with RNA secure (Ambion, Austin Tex. #7010) to inactivate contaminating RNases. All isolated RNA was treated with DNase solution (Ambion, Austin, Tex. #1906) following the manufacture's protocol. For all RNA samples, the quantity and quality of total RNA was assessed by spectrophotometric readings at 260 nm and by electrophoresis through a 1% formaldahyde agarose gel stained with ethidium bromide.
Real-Time PCR: Real time PCR was performed using reagents and a 5700 thermocycler purchased from Applied Biosystems (ABI, Foster City, Calif.). The nucleotide sequences of the primers for the ER subtypes and Vtg 1 are as follows: 5′, […] (SEQ ID NO:563) AND 5′[…] (SEQ ID NO:564). Probes and primers for the ER subtypes and Vtg 1 are described in Bowman et al., Ecotoxicology 8:399-416, 1999; and Bowman et al., Mol. Cell Endocrinol. 196:67-77, 2002. Each real time PCR reaction consisted of 0.01-0.2 μg of reverse transcribed total RNA from liver tissue, 1× universal Taqman master mix (ABI, Foster City, Calif.), and primers and probes in a 25 μl reaction. […] Statistical differences between the treatments were determined by one way analysis of variance with Dunnets post-hoc analysis.
Measurement of ER and Vtg 1 mRNA by real-time PCR: Real-time PCR is a sensitive assay that can be used to quantitate expression levels of genes. Using this technology, assays were designed to quantitate the expression of 4 genes, estrogen receptors alpha, beta, and gamma, and Vtg 1 in LMB following exposure to 4-NP and 4-NP/ICI 182,780. […]

[5] = tested on: LMB genes (ER alpha, ER gamma, StAR); design: species or system largemouth bass (LMB); details: Table II, test not stated
[6] = adult male SHM liver, aqueous E2 65.14 ng/L 5 d, EE2 109 ng/L 4 d, DES 100 ng/L 4 d, pNP 11.81 μg/L 5 d, MXC 5.59 μg/L 13 d, ES 590.3 ng/L, vs untreated control
[7] = adult male SHM liver, aqueous E2 65.14 ng/L 5 d, vs untreated control
[8] = Estrogen receptor alpha (clone ID not given)
[9] = clone SHM2-1: vitellogenin alpha (2)
[10] = clone SHM72-3: Coagulation Factor XI
[11] = clone SHM76-2: Alphal-microglobulin/bikunin precursor (AMBP) protein
[12] = male SHM liver, EE2 24, 109 or 832 ng/L, 4 days

## C[C@]12CC[C@@H]3c4ccc(O)cc4CC[C@H]3[C@@H]1CC[C@@H]2O [E2, estradiol]
[1]
  choriogenic protein (ZP2) expression: up-regulated (intensity value above ˜1.27 was designated an E2 up-regulated gene)
  transferrin expression: down-regulated (a value below ˜0.83 was designated an E2 down-regulated gene)
  vitellogenin α expression: up-regulated (intensity value above ˜1.27 was designated an E2 up-regulated gene)
  vitellogenin β expression: up-regulated (intensity value above ˜1.27 was designated an E2 up-regulated gene)
[2]; 48 h after single IP E2 2.5 mg/kg
  clone 132-2 expression: up-regulated (only genes that exhibit a two-fold or greater change in expression were considered to be differentially regulated)
[2]; 48 h after single IP dose: E2 2.5 mg/kg or 4-NP 50 mg/kg
  four Vtg genes expression: up-regulated (only genes that exhibit a two-fold or greater change in expression were considered to be differentially regulated)
[3]; [6]
  ER α expression: up-regulated (any cDNA clones in the macroarray experiments above a ˜1.66-fold induction were designated as up-regulated genes)
  Vtg α expression: up-regulated (any cDNA clones in the macroarray experiments above a ˜1.66-fold induction were designated as up-regulated genes)
[3]; [7]
  Vtg β expression: up-regulated (any cDNA clones in the macroarray experiments above a ˜1.66-fold induction were designated as up-regulated genes)
  alpha-1-microglobulin/bikunin precursor protein expression: down-regulated (any cDNA clones that had a value below ˜0.42 were designated as down-regulated)
  beta actin expression: down-regulated (any cDNA clones that had a value below ˜0.42 were designated as down-regulated)
  choriogenin 2 expression: up-regulated (any cDNA clones in the macroarray experiments above a ˜1.66-fold induction were designated as up-regulated genes)
  choriogenin 3 expression: up-regulated (any cDNA clones in the macroarray experiments above a ˜1.66-fold induction were designated as up-regulated genes)
  coagulation factor XI expression: up-regulated (any cDNA clones in the macroarray experiments above a ˜1.66-fold induction were designated as up-regulated genes)
  transferrin expression: down-regulated (any cDNA clones that had a value below ˜0.42 were designated as down-regulated)

## C#C[C@]1(O)CC[C@H]2[C@@H]3CCc4cc(O)ccc4[C@H]3CC[C@@]21C [EE2, 17α-ethynyl estradiol]
[3]; [8]
  Regulation: up-reg E2; EE2,
[3]; [9]
  Regulation: up-reg E2; EE2,
[3]; clone SHM11: Transferrin
  Regulation: dn-reg E2; EE2,
[3]; [10]
  Regulation: up-reg E2; EE2,
[3]; [11]
  Regulation: d-reg E2; EE2,
[3]; [12]
  ER α expression, EE2 dose response: increase in a concentration dependent manner
  Vtg α expression, EE2 dose response: increase in a concentration dependent manner
  Vtg β expression, EE2 dose response: increase in a concentration dependent manner
  alpha-1-microglobulin/bikunin precursor protein expression, EE2 dose response: decrease in a dose-dependent manner
  beta actin expression, EE2 dose response: decrease in a dose-dependent manner
  choriogenin 2 expression, EE2 dose response: increase in a concentration dependent manner
  choriogenin 3 expression, EE2 dose response: increase in a concentration dependent manner
  clone ND107-B expression, EE2 dose response: increase in a concentration dependent manner
  transferrin expression, EE2 dose response: decrease in a dose-dependent manner

## C[C@]12CC[C@@H]3c4ccc(O)cc4C[C@@H](CCCCCCCCC[S+]([O-])CCCC(F)(F)C(F)(F)F)[C@H]3[C@@H]1CC[C@@H]2O (stereo partly drawn) [ICI 182,780]
[4]
  repression of 4-NP induction of Vtg 1 mRNA by addition of ICI 182,780: not repressed

## COc1ccc(C(c2ccc(OC)cc2)C(Cl)(Cl)Cl)cc1 [MXC, methoxychlor]
[3]; [8]
  Regulation: up-reg E2; EE2,
[3]; [9]
  Regulation: up-reg E2; EE2,
[3]; clone SHM11: Transferrin
  Regulation: dn-reg E2; EE2,
[3]; [10]
  Regulation: up-reg E2; EE2,
[3]; [11]
  Regulation: d-reg E2; EE2,

## CC[C@H](CC[C@@H](C)[C@H]1CC[C@H]2[C@@H]3CC=C4C[C@@H](O)CC[C@]4(C)[C@H]3CC[C@]12C)C(C)C [b-sitosterol]
[5]
  LMB_STAR STAR PROTEIN differentially expressed by: dn-reg b-
